SMILES strings stand for the structures.

One experiment has as its system HeLa cells. The experiment is described as follows: Translation efficiency: luciferase activity after transfection of capped luciferase mRNA poly(A). The experiment is classed as cell-based. The following applies: luciferase mRNA poly(A) transfected into HeLa cells, 16 h, versus m^7GpppG-capped mRNA. As to the method: Alkynyl-derivatized capped mRNAs were produced in vitro for use in translation assays. […] In order to hydrolyze the remaining plasmid DNA, 1 μL of TURBO DNase was added to the reaction mixture and further incubated at 37° C. for 15 min. Purification of transcription reactions was done by using the MEGAclear™ kit (Life Technologies Corp) as per manufacturer's protocol. The in vitro transcription results in a mixture of 5′analog-capped and uncapped mRNAs.
To determine the translational efficiency, the luciferase mRNA poly(A) product generated from the transcription reaction using a standard cap and the luciferase mRNA poly(A) product generated as described above using the alkyne-derivatized cap 7 were transfected separately into HeLa cells.
The HeLa cells (60,000/well in 24 well-plates) were seeded at least 12 h before transfection in growth medium without antibiotics. Capped RNA was prepared by mixing 600 ng of RNA, 2.5 μL of TFX-20™ (Promega), and 300 μL of serum-free DMEM in polystyrene tubes and incubated for 15 min at room temperature. […] The plate was mixed carefully to disrupt the cells and 10 μL of cell lysates from each transfection reactions were mixed with 100 μL of luciferase substrate (Promega) and measured immediately on a POLARstar OPTIMA Luminometer (BMG Labtech) in 96-well plates. […]

A further experiment has as its target T7 RNA polymerase (Escherichia phage T7, UniProt P00573). The following applies: T7 RNA polymerase transcription, pTri β actin template, cap analog 1.6 mM, GTP 0.4 mM, 37° C. 2 h, 20% dPAGE gel.

Sequence of T7 RNA polymerase (P00573 whole entry): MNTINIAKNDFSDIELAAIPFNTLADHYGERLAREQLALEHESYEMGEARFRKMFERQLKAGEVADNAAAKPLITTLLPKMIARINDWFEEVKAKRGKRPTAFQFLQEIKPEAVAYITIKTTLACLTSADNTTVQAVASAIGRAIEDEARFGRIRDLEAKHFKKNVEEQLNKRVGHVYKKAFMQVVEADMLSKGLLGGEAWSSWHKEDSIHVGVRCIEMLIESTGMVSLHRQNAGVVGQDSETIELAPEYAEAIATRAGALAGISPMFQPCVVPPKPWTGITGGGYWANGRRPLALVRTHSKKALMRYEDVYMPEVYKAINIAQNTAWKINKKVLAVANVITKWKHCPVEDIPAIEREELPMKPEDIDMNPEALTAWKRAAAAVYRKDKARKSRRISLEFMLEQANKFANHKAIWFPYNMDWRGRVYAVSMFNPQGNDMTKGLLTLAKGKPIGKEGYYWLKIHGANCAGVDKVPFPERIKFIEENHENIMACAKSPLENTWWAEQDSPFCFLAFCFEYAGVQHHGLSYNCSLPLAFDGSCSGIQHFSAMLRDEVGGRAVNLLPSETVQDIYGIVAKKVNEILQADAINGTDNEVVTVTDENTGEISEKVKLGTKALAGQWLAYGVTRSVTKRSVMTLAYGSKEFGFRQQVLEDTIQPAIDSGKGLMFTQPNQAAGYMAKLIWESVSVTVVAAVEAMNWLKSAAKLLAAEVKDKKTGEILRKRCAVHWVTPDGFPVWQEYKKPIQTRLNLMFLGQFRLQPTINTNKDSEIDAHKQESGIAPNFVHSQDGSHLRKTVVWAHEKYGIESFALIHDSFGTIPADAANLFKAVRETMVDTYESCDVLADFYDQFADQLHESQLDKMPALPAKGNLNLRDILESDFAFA
Protocol for T7 RNA polymerase: The gel shift assay was performed by using a pTri β actin template and the IVT reaction used linearized AmbLuc poly(A) DNA template and a [sequence] kit (Life Technologies Corporation). Radiation in the gel bands of interest was quantified by a phosphorimager (GE Healthcare).
To analyze capping efficiency during transcription a Gel Shift Assay was used. The Gel shift assay was performed using the MAXISCRIPT kit (Life Technologies Corporation) by following the manufacturer's protocol. A typical 20 μL T7 RNA polymerase transcription reaction contained the following reagents at the final concentrations indicated: linearized pTri β actin vector template, 0.5 μg; ATP, 2 mM; GTP, 0.4 mM; compound standard cap analog and alkynyl-derivatized cap analog 7, 1.6 mM each in separate reactions; 10× reaction buffer, 4 μl; T7 RNA polymerase, 50 units/μL; (α-^32P) ATP, 800 (Ci/mmol); and DEPC water. The control reaction was a normal in vitro transcription reaction, in which no cap analog was added. […] Radiation in the gel bands of interest was quantified by a phosphoroimager (GE Healthcare).
Due to the omission of CTP and UTP, only the 5′ end was transcribed by T7 RNA polymerase, producing a transcript of six nucleotides in length. The resulting transcription products were analyzed by 20% denaturing polyacrylamide/8 M urea gel.

For the compound `C#CCO[C@H]1[C@@H](O)[C@H](n2c[n+](C)c3c(=O)[nH]c(N)nc32)O[C@@H]1COP(=O)(O)OP(=O)(O)OP(=O)(O)OC[C@H]1O[C@@H](n2cnc3c(=O)[nH]c(N)nc32)[C@H](O)[C@@H]1O` [compound 7, m^7,3′-O-propargylG[5′]ppp[5′]G], the “translational efficiency (luciferase signal) relative to mRNA capped with the standard cap analog” value in the experiment with HeLa cells is given as “up to 3 fold”; in the experiment with HeLa cells (listed as 3′-O-propargyl substituted cap analog), 3.1 fold. The compound also displayed a capping efficiency on T7 RNA polymerase of 60%.

In the case of `Cn1c[n+]([C@@H]2O[C@H](COP(=O)(O)OP(=O)(O)OP(=O)(O)OC[C@H]3O[C@@H](n4cnc5c(=O)[nH]c(N)nc54)[C@H](O)[C@@H]3O)[C@@H](O)[C@H]2O)c2nc(N)[nH]c(=O)c21` [standard cap, m^7G(5′)ppp(5′)G, reference compound], the capping efficiency on T7 RNA polymerase came out at 73%.

The values are drawn from patent US20160281095A1, “Alkynyl-Derivatized Cap Analogs, Preparation and Uses Thereof” (LIFE TECHNOLOGIES CORPORATION, priority 2011, published 2016).
